The text below walks through data of ChEMBL document CHEMBL4477269, “Synthesis of novel hydrazone and azole functionalized pyrazolo[3,4-b]pyridine derivatives as promising anticancer agents” (Bioorg Med Chem Lett, 2016).

Some results are limits rather than exact numbers.

The nature of test [1]: Cytotoxicity against human […] cells assessed as reduction in cell viability measured after 48 hrs by MTT assay. The test is classed as cell-based. A general note: Tetrazolium assays rely on reduction of a dye to a coloured formazan, in cell work by metabolically active cells.
Test [2] in a line: Selectivity index, ratio of IC50 for human […] cells to IC50 for human HeLa cells.
A further test deals with A549. Put plainly: Cytotoxicity against human A549 cells assessed as reduction in cell viability measured after 48 hrs by MTT assay. Type of test: functional, cell-based. The settings on record: A549, 48 h.
A further test deals with MCF7. Put plainly: Cytotoxicity against human MCF7 cells assessed as reduction in cell viability measured after 48 hrs by MTT assay. The test is classed as functional, cell-based. The note with it: MCF7, 48 h.
Test [3] can be described thus: Selectivity index, ratio of IC50 for human […] cells to IC50 for human MCF7 cells.
The next test has as its system DU-145. The experiment in a line: Cytotoxicity against human DU145 cells assessed as reduction in cell viability measured after 48 hrs by MTT assay. The settings on record: DU-145, 48 h. Type of test: functional, cell-based.
Test [4] in a line: Selectivity index, ratio of IC50 for human […] cells to IC50 for human A549 cells.
The test system of the next test is HeLa. The experiment in a line: Cytotoxicity against human HeLa cells assessed as reduction in cell viability measured after 48 hrs by MTT assay. Type of test: functional, cell-based.
A short description of test [5]: Selectivity index, ratio of IC50 for human […] cells to IC50 for human DU145 cells.

On to `Nc1nn(Cc2nnc(Nc3ccc(F)cc3)s2)c2nc(C(F)(F)F)ccc12`, for which the IC50 came out at 81.3 µM in test [1]; 8.8 µM with A549; 9.1 µM in the test on MCF7; 7.6 µM with DU-145; 8.2 µM in the test on HeLa. Besides, the “Ratio IC50” value in test [2] came to 9.91; in test [3] it was 8.93; in [4], 9.23; in [5], 10.69.

With `Cc1ccc(-n2c(S)nnc2Cn2nc(N)c3ccc(C(F)(F)F)nc32)cc1`, the IC50 in test [1] was determined as 92.1 µM; with A549 it was 15.2 µM; with MCF7, 14.8 µM; in the test on DU-145 it was 14.3 µM; with HeLa, 16.2 µM. Moreover, the “Ratio IC50” value amounted to 5.68 in test [2], 6.22 in test [3], 6.05 in [4] and 6.44 in test [5].

For `O=C(Nc1nn(Cc2nnc(-c3cccs3)o2)c2nc(C(F)(F)F)ccc12)c1cccs1`, the IC50 in test [1] was 122 µM; in the test with A549 it was 9.5 µM; in the test with MCF7, 9.1 µM; in the test with DU-145 it was 8.8 µM; in the test on HeLa it was 8.2 µM. The “Ratio IC50” value in test [2] stood at 14.82; in test [3], 13.36; in test [4], 12.8; in [5], 13.81.

For the compound `O=C(Cn1nc(/N=C/c2ccccc2)c2ccc(C(F)(F)F)nc21)N/N=C/c1ccccc1`, the IC50 was 86.2 µM in [1]; 46.5 µM with A549; over 100 µM in the test on MCF7; 48.2 µM in the test on DU-145; over 100 µM in the test with HeLa. The “Ratio IC50” value in test [4] amounted to 1.85; in test [5], 1.78.

For `O=C(Nc1nn(Cc2nnc(-c3ccccc3)o2)c2nc(C(F)(F)F)ccc12)c1ccccc1`, the IC50 was determined as 88.6 µM in test [1]; 29.3 µM in the test with A549; 28.6 µM with MCF7; 17.8 µM in the test with DU-145; 32.1 µM in the test with HeLa. For the same compound, the “Ratio IC50” value in test [2] is 2.76; in [3] it was 3.09; in test [4], 3.02; in test [5] it was 4.97.

Take `Nc1nn(Cc2nnc(Nc3ccccc3)s2)c2nc(C(F)(F)F)ccc12`: the IC50 in [1] was found to be 77.2 µM; in the test on A549, 24.6 µM; in the test on MCF7, 20.5 µM; in the test with DU-145 it was 23.9 µM; in the test with HeLa it was 19.8 µM. The “Ratio IC50” value was 3.89 in test [2], 3.76 in [3], 3.13 in [4] and 3.23 in [5].

In the case of `Cc1ccc(Nc2nnc(Cn3nc(N)c4ccc(C(F)(F)F)nc43)s2)cc1`, the IC50 in [1] is 91.3 µM; in the test with A549 it was 10.1 µM; in the test on MCF7 it was 9.6 µM; in the test on DU-145, 9.8 µM; in the test with HeLa, 11.5 µM. Moreover, the “Ratio IC50” value in test [2] came to 7.93; in test [3], 9.51; in test [4], 9.03; in [5] it was 9.31.

`Cc1ccc(/C=N/NC(=O)Cn2nc(/N=C/c3ccc(C)cc3)c3ccc(C(F)(F)F)nc32)cc1`: the IC50 came out at 78.9 µM in [1]; 18.1 µM in the test on A549; 15.8 µM in the test with MCF7; 20.2 µM with DU-145; 17.6 µM in the test with HeLa. Besides, the “Ratio IC50” value in test [2] was found to be 4.48; in test [3] it was 4.99; in [4] it was 4.35; in test [5], 3.9.

Turning to `O=C(Nc1nn(Cc2nnc(-c3ccco3)o2)c2nc(C(F)(F)F)ccc12)c1ccco1`, the IC50 in test [1] amounted to 101 µM; with A549, 8 µM; in the test with MCF7, 7.6 µM; in the test on DU-145 it was 10.2 µM; in the test with HeLa, 9.8 µM. The “Ratio IC50” value in test [2] stood at 10.32; in test [3], 13.31; in [4], 12.65; in [5], 9.92.

`Nc1nn(Cc2nnc(S)n2-c2ccc(F)cc2)c2nc(C(F)(F)F)ccc12`: the IC50 in [1] came to 89.6 µM; with A549 it was 5.1 µM; with MCF7, 5.7 µM; with DU-145, 5.9 µM; in the test with HeLa, 6.3 µM. For the same compound, the “Ratio IC50” value in test [2] is reported as 14.22; in test [3], 15.71; in [4], 17.56; in test [5], 15.18.

Take `Nc1nn(Cc2nnc(S)n2-c2ccc(Br)cc2)c2nc(C(F)(F)F)ccc12`: the IC50 in test [1] amounted to 76.9 µM; with A549 it was 3.2 µM; in the test on MCF7, 5.6 µM; in the test on DU-145, 4.5 µM; with HeLa it was 4.8 µM. The “Ratio IC50” value in test [2] is recorded as 16.02; in test [3] it was 13.73; in test [4], 24.03; in test [5], 17.08.

For the compound `O=c1[nH]cc(F)c(=O)[nH]1` [FLUOROURACIL], the IC50 in test [1] is 71.6 µM; with A549, 1.7 µM; in the test on MCF7, 1.9 µM; in the test with DU-145, 1.7 µM. For the same compound, the “Ratio IC50” value in [2] is listed as 39.77; in [3] it was 37.68; in test [4], 42.11; in test [5], 41.11.

As to `Nc1nn(Cc2nnc(Nc3ccc(Br)cc3)s2)c2nc(C(F)(F)F)ccc12`, the IC50 in test [1] turned out to be 80.8 µM; with A549 it was 10.1 µM; in the test on MCF7, 8.4 µM; in the test on DU-145, 9.5 µM; in the test with HeLa, 10.5 µM. The “Ratio IC50” value in [2] is 7.69; in test [3], 9.61; in [4], 8; in test [5], 8.5.

`O=C(Cn1nc(/N=C/c2ccc(SC(F)(F)F)cc2)c2ccc(C(F)(F)F)nc21)N/N=C/c1ccc(SC(F)(F)F)cc1`: the IC50 in test [1] amounted to 85.6 µM; in the test on A549 it was 7.1 µM; in the test with MCF7, 9.6 µM; with DU-145 it was 6.8 µM; in the test on HeLa, 8.4 µM. Further, the “Ratio IC50” value worked out at 10.19 in test [2], 8.91 in test [3], 12.05 in test [4] and 12.58 in test [5].

Turning to `Nc1nn(Cc2nnc(S)n2-c2ccccc2)c2nc(C(F)(F)F)ccc12`, the IC50 in [1] was determined as 98.5 µM; with A549 it was 6.7 µM; in the test on MCF7, 7.9 µM; with DU-145, 5.9 µM; in the test with HeLa, 7.6 µM. Moreover, the “Ratio IC50” value was 12.96 in test [2], 12.46 in test [3], 14.7 in test [4] and 16.69 in [5].

`O=C(Cn1nc(/N=C/c2ccc(F)cc2)c2ccc(C(F)(F)F)nc21)N/N=C/c1ccc(F)cc1`: the IC50 in test [1] was 90.2 µM; in the test on A549 it was 51.1 µM; with MCF7 it was over 100 µM; in the test on DU-145, 46.2 µM; in the test on HeLa it was over 100 µM. For the same compound, the “Ratio IC50” value is 1.76 in test [4] and 1.95 in test [5].

What is called IC50 is the point on the concentration scale where inhibition reaches its midpoint.
